Laboratory results: patent publication US8119681B2, “2-[1-phenyl-5-hydroxy or methoxy-4alpha-methyl-hexahydrocyclopenta [ƒ]indazole-5-YL]ethyl phenyl derivatives as glucocorticoid receptor ligands” (Merck Sharp & Dohme Corp., priority 2006, dated 2012)

Biological target: T1, human GR (Homo sapiens, UniProt P04150)
T1 sequence (P04150 1-777): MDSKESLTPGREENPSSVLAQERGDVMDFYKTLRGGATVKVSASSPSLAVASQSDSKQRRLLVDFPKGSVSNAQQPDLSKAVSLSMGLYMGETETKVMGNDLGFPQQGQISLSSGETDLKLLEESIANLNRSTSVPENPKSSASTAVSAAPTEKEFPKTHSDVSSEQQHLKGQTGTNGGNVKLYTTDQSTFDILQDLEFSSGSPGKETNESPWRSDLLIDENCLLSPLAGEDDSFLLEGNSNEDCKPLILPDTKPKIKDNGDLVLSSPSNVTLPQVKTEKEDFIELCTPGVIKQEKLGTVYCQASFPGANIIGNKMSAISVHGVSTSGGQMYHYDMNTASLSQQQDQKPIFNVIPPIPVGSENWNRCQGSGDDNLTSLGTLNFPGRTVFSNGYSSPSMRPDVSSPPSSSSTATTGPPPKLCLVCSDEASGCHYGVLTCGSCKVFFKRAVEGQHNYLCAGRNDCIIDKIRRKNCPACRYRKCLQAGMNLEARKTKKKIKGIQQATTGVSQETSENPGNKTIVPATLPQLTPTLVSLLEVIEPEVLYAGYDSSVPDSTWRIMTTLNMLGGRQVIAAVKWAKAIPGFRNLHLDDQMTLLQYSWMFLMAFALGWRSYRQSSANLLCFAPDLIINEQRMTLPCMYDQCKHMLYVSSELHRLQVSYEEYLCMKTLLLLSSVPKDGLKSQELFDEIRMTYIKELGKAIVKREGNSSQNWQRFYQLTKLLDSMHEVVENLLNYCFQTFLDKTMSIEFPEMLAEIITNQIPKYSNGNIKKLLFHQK
Assay: Transrepression Assay (GITAR), TNFα-β-lactamase reporter gene in U937 cells
Type: cell-based
Design: U937 cells contain an endogenous glucocorticoid receptor (GR); endogenous in cells; host or cells: U937 cells stably transfected with the TNF-α promoter/β-lactamase reporter only
Settings: U-937; 100 nM dexamethasone = 100% activity; read-out: maximal activity in the transrepression assay
Excerpt: Transrepression Assay (GITAR)
This assay assesses the ability of test compounds to control transcription from the TNFα-β-lactamase reporter gene in U937 cells, a human myelomonocytic leukemia cell line that naturally expresses the human GR. The assay measures compound dependent-repression of the TNFa promoter linked to a reporter gene.
The human U937 cells that had been stably transfected with the TNF-α promoter driving β-lactamase are used for this assay. U937 cells contain an endogenous glucocorticoid receptor (GR). […] 50,000 cells/well are plated in 96 well black-walled plates the day of assay. Test compounds are added 10 μL/well, and cells are incubated at 37° C. for 30˜45 min. For assaying compounds, first dilute 1:10 in DMSO to make 1 mM, then further dilute 1:100 in medium to make 10× stock prior to adding to the cells. Add 50 ng/ml PMA (Sigma, cat# P8139) 10 μL/well to a final concentration 5 ng/ml, and 1 μg/ml LPS (Sigma, cat# L4130) 10 μL/well to a final concentration 100 ng/ml. Incubate cells at 370 C overnight for ˜18 hr. PMA is stored frozen as 100 μg/ml stock in DMSO. Dilute 1:10 in DMSO for a working stock of 10 μg/ml and store at −20 C. For assaying, dilute the 10 μg/ml working stock 1:200 in medium to make a 10× solution (50 ng/ml). Store frozen LPS at 1 mg/ml in PBS, dilute 1:1000 in medium to make 10× (1 μg/ml) for the assay. Add 6× loading buffer (CCF2-AM) 20 μL/well, and incubate at room temperature for 70˜90 min. […] The activity repressed by 100 nM dexamethasone alone is set as 100% activity.

Emax [%] | Structure (SMILES)
5 to 100 | C[C@]12Cc3cnn(-c4ccc(F)cc4)c3C=C1CC[C@@]2(O)CCc1ccccc1C=O [Example 21, 2-{2-[(4αS,5R)-1-(4-Fluorophenyl)-5-hydroxy-4α-methyl-1,4,4α,5,6,7-hexahydrocyclopenta[f]indazol-5-yl]ethyl}benzaldehyde]
5 to 100 | C[C@]12Cc3cnn(-c4ccc(F)cc4)c3C=C1CC[C@@]2(O)CCc1ccccc1S(N)(=O)=O [Example 22, 2-{2-[(4αS,5R)-1-(4-fluorophenyl)-5-hydroxy-4α-methyl-1,4,4α,5,6,7-hexahydrocyclopenta[f]indazol-5-yl]ethyl}benzenesulfonamide]
5 to 100 | CCOC1(OCC)CN(C(=O)c2ccccc2CC[C@]2(O)CCC3=Cc4c(cnn4-c4ccc(F)cc4)C[C@@]32C)C1 [Example 24, (4αS,5R)-5-(2-{2-[(3,3-diethoxyazetidin-1-yl)carbonyl]phenyl}ethyl)-1-(4-fluorophenyl)-4α-methyl-1,4,4α,5,6,7-hexahydrocyclopenta[f]indazol-5-ol]
5 to 100 | CC(C)(C)CNC(=O)c1ccccc1CC[C@]1(O)CCC2=Cc3c(cnn3-c3ccc(F)cc3)C[C@@]21C [Example 25, N-(2,2-dimethylpropyl)-2-{2-[(4αS,5R)-1-(4-fluorophenyl)-5-hydroxy-4α-methyl-1,4,4α,5,6,7-hexahydrocyclopenta[f]indazol-5-yl]ethyl}benzamide]
5 to 100 | CCNC(=O)c1ccccc1CC[C@]1(O)CCC2=Cc3c(cnn3-c3ccccc3)C[C@@]21C [Example 27, N-ethyl-2-{2-[(4αS,5R)-5-hydroxy-4α-methyl-1-phenyl-1,4,4α,5,6,7-hexahydrocyclopenta[f]indazol-5-yl]ethyl}benzamide]
5 to 100 | CCNC(=O)c1ccccc1CC[C@]1(O)CCC2=Cc3c(cnn3-c3cccc(F)c3)C[C@@]21C [Example 36, N-ethyl-2-{2-[(4αS,5R)-1-(3-fluorophenyl)-5-hydroxy-4α-methyl-1,4,4α,5,6,7-hexahydrocyclopenta[f]indazol-5-yl]ethyl}benzamide]
5 to 100 | CC1(NC(=O)c2ccccc2CC[C@]2(O)CCC3=Cc4c(cnn4-c4ccc(F)c(F)c4)C[C@@]32C)CC1 [Example 39, 2-{2-[(4αS,5R)-1-(3,4-difluorophenyl)-5-hydroxy-4α-methyl-1,4,4α,5,6,7-hexahydrocyclopenta[f]indazol-5-yl]ethyl}-N-(1-methylcyclopropyl)benzamide]
5 to 100 | C=CCN(C)C(=O)c1ccccc1CC[C@]1(O)CCC2=Cc3c(cnn3-c3ccc(F)cc3)C[C@@]21C [Example 50, N-allyl-2-{2-[(4αS,5R)-1-(4-fluorophenyl)-5-hydroxy-4α-methyl-1,4,4α,5,6,7-hexahydrocyclopenta[f]indazol-5-yl]ethyl}-N-methylbenzamide]
5 to 100 | C=C(F)CNC(=O)c1ccccc1CC[C@]1(O)CCC2=Cc3c(cnn3-c3ccc(F)cc3)C[C@@]21C [Example 53, 2-{2-[(4αS,5R)-1-(4-fluorophenyl)-5-hydroxy-4α-methyl-1,4,4α,5,6,7-hexahydrocyclopenta[f]indazol-5-yl]ethyl}-N-(2-fluoroprop-2-en-1-yl)benzamide]
5 to 100 | C[C@]12Cc3cnn(-c4ccc(F)cc4)c3C=C1CC[C@@]2(O)CCc1ccccc1C(=O)N1CC[C@H](F)C1 [Example 54, (4αS,5R)-1-(4-fluorophenyl)-5-[2-(2-{[(3S)-3-fluoropyrrolidin-1-yl]carbonyl}phenyl)ethyl]-4α-methyl-1,4,4α,5,6,7-hexahydrocyclopenta[f]indazol-5-ol]
5 to 100 | C[C@]12Cc3cnn(-c4ccc(F)cc4)c3C=C1CC[C@@]2(O)CCc1ccccc1CC(=O)NCC(F)(F)F [Example 56, 2-(2-{2-[(4αS,5R)-1-(4-fluorophenyl)-5-hydroxy-4α-methyl-1,4,4α,5,6,7-hexahydrocyclopenta[f]indazol-5-yl]ethyl}phenyl)-N-(2,2,2-trifluoroethyl)acetamide]
5 to 100 | C[C@]12Cc3cnn(-c4ccc(F)cc4)c3C=C1CC[C@@]2(O)CCc1ccccc1C(=O)N1CC[C@@H](O)C1 [Example 58, (4αS,5R)-1-(4-fluorophenyl)-5-[2-(2-{[(3R)-3-hydroxypyrrolidin-1-yl]carbonyl}phenyl)ethyl]-4α-methyl-1,4,4α,5,6,7-hexahydrocyclopenta[f]indazol-5-ol]
5 to 100 | C[C@]12Cc3cnn(-c4ccc(F)cc4)c3C=C1CC[C@@]2(O)CCc1ccccc1C(N)=O [Example 60, 2-{2-[(4αS,5R)-1-(4-fluorophenyl)-5-hydroxy-4α-methyl-1,4,4α,5,6,7-hexahydrocyclopenta[f]indazol-5-yl]ethyl}benzamide]
5 to 100 | CC1(NC(=O)c2c(F)cccc2CC[C@]2(O)CCC3=Cc4c(cnn4-c4ccc(F)cc4)C[C@@]32C)CC1 [Example 63, 2-fluoro-6-{2-[(4αS,5R)-1-(4-fluorophenyl)-5-hydroxy-4α-methyl-1,4,4α,5,6,7-hexahydrocyclopenta[f]indazol-5-yl]ethyl}-N-(1-methylcyclopropyl)benzamide]
5 to 100 | C[C@]12Cc3cnn(-c4ccc(F)cc4)c3C=C1CC[C@@]2(O)CCc1ccccc1C(=O)NCC(F)(F)F [Example 64, 2-{2-[(4αS,5R)-1-(4-fluorophenyl)-5-hydroxy-4α-methyl-1,4,4α,5,6,7-hexahydrocyclopenta[f]indazol-5-yl]ethyl}-N-(2,2,2-trifluoroethyl)benzamide]
5 to 100 | C[C@]12Cc3cnn(-c4ccc(F)cc4)c3C=C1CC[C@@]2(O)CCc1cccc(F)c1C(=O)N1CCC1 [Example 65, (4αS,5R)-5-{2-[2-(azetidin-1-ylcarbonyl)-3-fluorophenyl]ethyl}-1-(4-fluorophenyl)-4α-methyl-1,4,4α,5,6,7-hexahydrocyclopenta[f]indazol-5-ol]
5 to 100 | C[C@]12Cc3cnn(-c4ccc(F)cc4)c3C=C1CC[C@@]2(O)CCc1ccccc1C(=O)N1CCCC(F)(F)C1 [Example 66, (4αS,5R)-5-(2-{2-[(3,3-difluoropiperidin-1-yl)carbonyl]phenyl}ethyl)-1-(4-fluorophenyl)-4α-methyl-1,4,4α,5,6,7-hexahydrocyclopenta[f]indazol-5-ol]
5 to 100 | CC(C)NC(=O)c1c(F)cccc1CC[C@]1(O)CCC2=Cc3c(cnn3-c3ccc(F)cc3)C[C@@]21C [Example 67, 2-fluoro-6-{2-[(4αS,5R)-1-(4-fluorophenyl)-5-hydroxy-4α-methyl-1,4,4α,5,6,7-hexahydrocyclopenta[f]indazol-5-yl]ethyl}-N-isopropylbenzamide]
5 to 100 | C[C@]12Cc3cnn(-c4ccc(F)cc4)c3C=C1CC[C@@]2(O)CCc1cccc(F)c1C(N)=O [Example 68, 2-fluoro-6-{2-[(4αS,5R)-1-(4-fluorophenyl)-5-hydroxy-4α-methyl-1,4,4α,5,6,7-hexahydrocyclopenta[f]indazol-5-yl]ethyl}benzamide]
5 to 100 | C[C@]12Cc3cnn(-c4ccc(F)cc4)c3C=C1CC[C@@]2(O)CCc1cccc(F)c1C(=O)N1CC[C@H](F)C1 [Example 69, (4αS,5R)-5-[2-(3-fluoro-2-{[(3S)-3-fluoropyrrolidin-1-yl]carbonyl}phenyl)ethyl]-1-(4-fluorophenyl)-4α-methyl-1,4,4α,5,6,7-hexahydrocyclopenta[f]indazol-5-ol]
5 to 100 | CC(C)(NC(=O)c1ccccc1CC[C@]1(O)CCC2=Cc3c(cnn3-c3ccc(F)cc3)C[C@@]21C)C(N)=O [Example 70, N-(2-amino-1,1-dimethyl-2-oxoethyl)-2-{2-[(4αS,5R)-1-(4-fluorophenyl)-5-hydroxy-4α-methyl-1,4,4α,5,6,7-hexahydrocyclopenta[f]indazol-5-yl]ethyl}benzamide]
